Results published in paper PMC6163091 (Chemical biology & drug design, 2018).
Read-outs that look alike come from different tables or passages of the source. Each block holds one compound with its values, some of them ahead of it.

What was measured:
[1] = target: guanosine/adenosine/cytidine nucleoside hydrolase (GACNH) (Trichomonas vaginalis, UniProt A2DN71); test: 1H NMR-based activity assay of GACNH; type: biochemical; details: for inhibition at 250 µM: read-out: % inhibition at 250 μM against GACNH
[2] = test system: uridine nucleoside hydrolase (UNH); test: 19F NMR activity assay of UNH; type: biochemical, Trichomonas vaginalis; details: 250 μM compound; NM = not measurable (percent inhibition < 10%)
[3] = target: T1, adenosine/guanosine nucleoside hydrolase (AGNH) (Trichomonas vaginalis, UniProt A2EYV3); test: 1H NMR activity assay of AGNH; type: biochemical; details: for inhibition at 250 µM: read-out: % inhibition at 250 μM against AGNH
T1 sequence (A2EYV3 1-304): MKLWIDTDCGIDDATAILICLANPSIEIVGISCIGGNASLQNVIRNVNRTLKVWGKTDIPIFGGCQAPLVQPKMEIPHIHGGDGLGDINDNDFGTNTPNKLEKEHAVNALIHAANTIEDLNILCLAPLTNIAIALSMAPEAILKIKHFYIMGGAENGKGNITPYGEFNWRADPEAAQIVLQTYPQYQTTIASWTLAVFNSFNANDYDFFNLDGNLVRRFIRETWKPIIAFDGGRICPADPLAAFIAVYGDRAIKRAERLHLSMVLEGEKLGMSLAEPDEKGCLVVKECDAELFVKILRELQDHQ

[4] = test system: uridine nucleoside hydrolase (UNH); details: NMR screen of NIH Clinical Collection; cited from earlier work
[5] = IC50 (μM) with Triton, GACNH, in the presence of 0.01% Triton X-100
[6] = IC50 against GACNH, ribavirin analogs, Table 2
[7] = carboxamidine in place of carboxamide

Structure (SMILES): COc1ccc(-c2oc3c(CC=C(C)C)c(O[C@@H]4O[C@H](CO)[C@@H](O)[C@H](O)[C@H]4O)cc(O)c3c(=O)c2O[C@@H]2O[C@@H](C)[C@H](O)[C@@H](O)[C@H]2O)cc1 [Icariin]
IC50 [1, 5]: 5 ± 1.7 µM

Structure (SMILES): NC(=O)c1ncn([C@@H]2O[C@H](CO)[C@@H](O)[C@H]2O)n1 [Ribavirin]
% inhibition at 250 μM against UNH [2]: 58%
inhibition at 250 µM [3]: 83%
IC50 [1, 5]: 9 ± 3.3 µM
IC50 [1, 6]: 8.6 ± 4.4 µM
GACNH inhibition in screen ([1]; screen of NIH Clinical Collection, 50 μM compound, 100 μM adenosine, 40 min): significant inhibition

Structure (SMILES): O=C1c2c(O)cc(O)cc2O[C@H](c2ccc(O)c(O)c2)[C@H]1O (racemic) [(±)-Taxifolin]
IC50 ([1]; read-out: IC50 (μM) with Triton, GACNH, in the presence of 0.01% Triton X-100): 41.6 ± 20.4 µM

% inhibition at 250 μM against UNH [2]: 55%
IC50 [3]: 0.12 ± 0.03 µM
enhancement of potency against AGNH relative to ribavirin [3, 7]: more than 100 fold
selectivity toward AGNH over GACNH ([3]; from IC50 values): 10 fold
IC50 [1, 6]: 1.1 ± 0.6 µM
enhancement of potency against GACNH relative to ribavirin [1, 7]: about 10 fold
Structure (SMILES): N=C(N)c1ncn([C@@H]2O[C@H](CO)[C@@H](O)[C@H]2O)n1 [Viramidine]

Structure (SMILES): OC[C@H]1O[C@@H](n2cnc3c(NC4CCCC4)nc(Cl)nc32)[C@H](O)[C@@H]1O [CCPA, 2-chloro-N(6)-cyclopentyladenosine]
IC50 [1, 5]: 14 ± 5.8 µM

Structure (SMILES): COc1ccnc(C[S+]([O-])c2nc3ccc(OC(F)F)cc3[nH]2)c1OC (centres unmarked) [pantoprazole]
inhibition of UNH (earlier screen) [4]: potent inhibitors

Structure (SMILES): COc1ccc2[nH]c([S+]([O-])Cc3ncc(C)c(OC)c3C)nc2c1 (centres unmarked) [omeprazole]
inhibition of UNH (earlier screen) [4]: potent inhibitors

IC50 [1, 5]: 22.6 ± 7.6 µM
Structure (SMILES): O=c1c(O[C@@H]2O[C@H](CO)[C@H](O)[C@H](O)[C@H]2O)c(-c2ccc(O)c(O)c2)oc2cc(O)cc(O)c12 [Hyperoside]

IC50 [1, 5]: 2.2 ± 0.6 µM
Structure (SMILES): O=c1c(O[C@@H]2O[C@H](CO)[C@@H](O)[C@H](O)[C@H]2O)c(-c2ccc(O)c(O)c2)oc2cc(O)cc(O)c12 [Isoquercitrin]

Structure (SMILES): CCc1oc2ccccc2c1C(=O)c1cc(Br)c(O)c(Br)c1 [Benzbromarone]
IC50 [1, 5]: 134 ± 32.7 µM

% inhibition at 250 μM against UNH [2]: 51%
inhibition at 250 µM [3]: < 10%
inhibition at 250 µM [1]: 70%
Structure (SMILES): NC(=O)c1ncn([C@@H]2O[C@H](CO)[C@@H](O)[C@H]2O)c1N [Acadesine]

inhibition at 250 µM [3]: < 10%
inhibition at 250 µM [1]: < 10%
Structure (SMILES): NC(=O)c1ncn([C@@H]2O[C@H](CO)[C@@H](O)[C@H]2O)c1O [Mizoribine]
% inhibition at 250 μM against UNH [2]: NM (Not measurable (percent inhibition < 10%))

Structure (SMILES): COCCCOc1ccnc(C[S+]([O-])c2nc3ccccc3[nH]2)c1C (centres unmarked) [rabeprazole]
inhibition of UNH (earlier screen) [4]: potent inhibitors
